Results from ChEMBL document CHEMBL4819055, “Discovery of 5-(N-hydroxycarbamimidoyl) benzofuran derivatives as novel indoleamine 2,3-dioxygenase 1 (IDO1) inhibitors” (Bioorg Med Chem Lett, 2021).

What was measured:
[1] = target: T1, Indoleamine 2,3-dioxygenase 1 (Homo sapiens, UniProt P14902); assay: Inhibition of IDO1 in IFNgamma-stimulated human HeLa cells assessed as reduction in kynurenine formation using L-tryptophan as substrate by absorbance based analysis
[2] = target: T1, Indoleamine 2,3-dioxygenase 1; assay: Inhibition of IDO1 (unknown origin) assessed as reduction in kynurenine formation using L-tryptophan as substrate by absorbance based analysis

T1 sequence (P14902 whole entry): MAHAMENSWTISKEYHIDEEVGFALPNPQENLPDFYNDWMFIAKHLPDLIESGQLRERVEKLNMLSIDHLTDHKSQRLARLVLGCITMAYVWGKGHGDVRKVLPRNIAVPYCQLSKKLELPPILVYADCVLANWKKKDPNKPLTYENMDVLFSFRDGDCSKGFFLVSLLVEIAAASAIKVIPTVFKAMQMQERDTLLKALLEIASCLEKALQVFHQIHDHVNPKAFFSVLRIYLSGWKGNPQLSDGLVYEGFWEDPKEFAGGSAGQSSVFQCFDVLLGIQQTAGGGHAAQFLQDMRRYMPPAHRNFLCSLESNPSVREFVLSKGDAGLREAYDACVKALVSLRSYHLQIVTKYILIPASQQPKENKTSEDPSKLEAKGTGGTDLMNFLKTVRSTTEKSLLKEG

SMILES | IC50 [1] [µM] | IC50 [2] [µM]
O/N=C(/Nc1cccc(COc2ccccc2)c1)c1ccc2occc2c1 | > 30 | > 30
O/N=C(/NCc1ccc(F)c(Cl)c1)c1ccc2occc2c1 | 17.6 | 22
OCc1cc2cc(/C(=N\O)Nc3cccc(Br)c3)ccc2o1 | 1.2 | 0.71
COc1cc(N/C(=N/O)c2ccc3oc4ccccc4c3c2)cc(OC)c1 | > 30 | > 30
O/N=C(/Nc1ccc(F)c(Br)c1)c1ccc2occc2c1 | 2.6 | 1.6
O/N=C(/Nc1ccc(Cl)c(F)c1)c1ccc2occc2c1 | 10.3 | > 30
COCc1cc2cc(/C(=N\O)Nc3cccc(Br)c3)ccc2o1 | 2.5 | 0.93
COCc1cc2cc(/C(=N\O)Nc3cccc(Cl)c3)ccc2o1 | 2.2 | 1
O/N=C(/Nc1cccc(Br)c1)c1ccc2occc2c1 | 1.1 | 0.44
CCCCOc1cccc(N/C(=N/O)c2ccc3occc3c2)c1 | > 30 | > 30
O/N=C(/NCc1cccc(Cl)c1)c1ccc2occc2c1 | 5.8 | > 30
CC(=O)c1cccc(N/C(=N/O)c2ccc3occc3c2)c1 | > 30 | > 30
O/N=C(/Nc1cccc(Oc2ccccc2)c1)c1ccc2occc2c1 | > 30 | > 30
O/N=C(/Nc1ccccc1)c1ccc2occc2c1 | 19 | > 30
O/N=C(/Nc1cccc(Cl)c1)c1ccc2occc2c1 | 1.5 | 0.69
COCc1cc2cc(/C(=N\O)Nc3cccc(F)c3)ccc2o1 | 6.1 | 7.1
O/N=C(/Nc1ccc(Cl)cc1)c1ccc2occc2c1 | > 30 | > 30
O/N=C(/Nc1cccc(F)c1)c1ccc2occc2c1 | 20 | 32.7
O/N=C(/Nc1cccc(C(F)(F)F)c1)c1ccc2occc2c1 | 1.9 | 1.2
O/N=C(/Nc1ccc(F)c(Cl)c1)c1ccc2occc2c1 | 1.8 | 5.2
O/N=C(/Nc1ccc(F)c(C(F)(F)F)c1)c1ccc2occc2c1 | 2.2 | 1.2
O/N=C(/NCc1ccco1)c1ccc2occc2c1 | > 30 | > 30
O/N=C(/Nc1cccc(Cl)c1)c1ccc2oc(COCC3CC3)cc2c1 | 17.6 | 1.5
O/N=C(/Nc1cccc(Br)c1)c1ccc2oc(-c3ccccc3)cc2c1 | 8.6 | 0.9
O=C(NCc1ccccc1)c1cccc(N/C(=N/O)c2ccc3occc3c2)c1 | > 30 | > 30
O/N=C(/Nc1cccc(F)c1)c1ccc2oc(COCC3CC3)cc2c1 | 8 | 2.2

Other lines, results leading:

IC50 [1] [µM] | IC50 [2] [µM] | SMILES
14 | 22.7 | O/N=C(/Nc1ccc(F)c(F)c1)c1ccc2occc2c1
> 30 | > 30 | O/N=C(/NCC1CC1)c1ccc2occc2c1
3.2 | 0.4 | O/N=C(/Nc1cccc(Br)c1)c1ccc2oc(COCC3CC3)cc2c1
11.9 | 11 | O/N=C(/Nc1cccc(-c2ccccc2)c1)c1ccc2occc2c1
10.8 | 0.9 | O/N=C(/Nc1cccc(Cl)c1)c1ccc2oc(-c3ccccc3)cc2c1
29.6 | 3.6 | O/N=C(/NCc1cccc(Cl)c1)c1ccc2oc3ccccc3c2c1
10.8 | 1.3 | O/N=C(/Nc1cccc(Br)c1)c1ccc2oc3ccccc3c2c1
> 30 | > 30 | CC1CCN(C(=O)c2cccc(N/C(=N/O)c3ccc4occc4c3)c2)CC1
2.4 | 1.7 | OCc1cc2cc(/C(=N\O)Nc3cccc(F)c3)ccc2o1
> 30 | > 30 | O=C(NCC1CCCCC1)c1cccc(N/C(=N/O)c2ccc3occc3c2)c1
16.2 | 2.4 | O/N=C(/Nc1ccc(F)c(Br)c1)c1ccc2oc3ccccc3c2c1
> 30 | > 30 | Cc1ccc(N/C(=N/O)c2ccc3occc3c2)cc1C
16.2 | > 30 | O/N=C(/NCc1cccs1)c1ccc2occc2c1
> 30 | > 30 | O/N=C(/Nc1cccc(Cc2ccccc2)c1)c1ccc2occc2c1
28.2 | > 30 | O/N=C(/NCc1ccccc1)c1ccc2occc2c1
10.6 | 11 | O/N=C(/Nc1cccc(F)c1)c1ccc2oc(-c3ccccc3)cc2c1
7.6 | 1.8 | O/N=C(/Nc1cccc(Cl)c1)c1ccc2oc3ccccc3c2c1
22.8 | 9.6 | O/N=C(/Nc1ccc(F)c(Cl)c1)c1ccc2oc3ccccc3c2c1
5.9 | 8 | OCc1cc2cc(/C(=N\O)Nc3cccc(Cl)c3)ccc2o1
